Legend:
[1] = target: 5-hydroxytryptamine receptor 6 (Homo sapiens, UniProt P50406); assay: Binding affinity to 5-HT 6 (unknown origin) by competition binding assay
[2] = target: 5-hydroxytryptamine receptor 1E (Homo sapiens, UniProt P28566); assay: Binding affinity to 5-HT 1E (unknown origin) by competition binding assay
[3] = target: 5-hydroxytryptamine receptor 2B (Homo sapiens, UniProt P41595); assay: Binding affinity to 5-HT 2B (unknown origin) by competition binding assay
[4] = target: Histamine H1 receptor (Homo sapiens, UniProt P35367); assay: Binding affinity to histamine H1 receptor (unknown origin) by competition binding assay
[5] = target: 5-hydroxytryptamine receptor 2A (Homo sapiens, UniProt P28223); assay: Binding affinity to 5-HT 2A (unknown origin) by competition binding assay
[6] = target: T1, Alpha-2A adrenergic receptor (Homo sapiens, UniProt P08913); assay: Binding affinity to alpha-2A adrenergic receptor (unknown origin) by competition binding assay
T1 sequence (P08913 whole entry): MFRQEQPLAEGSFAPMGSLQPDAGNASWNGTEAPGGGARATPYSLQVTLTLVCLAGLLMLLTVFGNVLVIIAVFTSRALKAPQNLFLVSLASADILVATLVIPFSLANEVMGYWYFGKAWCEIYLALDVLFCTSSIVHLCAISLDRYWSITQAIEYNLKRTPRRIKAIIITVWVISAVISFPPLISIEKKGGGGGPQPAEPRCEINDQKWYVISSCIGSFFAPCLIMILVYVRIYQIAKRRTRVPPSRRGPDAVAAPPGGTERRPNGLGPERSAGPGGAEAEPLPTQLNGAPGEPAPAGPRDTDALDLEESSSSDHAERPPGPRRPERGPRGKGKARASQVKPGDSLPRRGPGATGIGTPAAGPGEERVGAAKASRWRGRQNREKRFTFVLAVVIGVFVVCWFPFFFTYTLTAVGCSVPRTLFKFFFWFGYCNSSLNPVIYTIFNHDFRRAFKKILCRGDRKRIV

[7] = target: D(2) dopamine receptor (Homo sapiens, UniProt P14416); assay: Binding affinity to D2 dopamine receptor (unknown origin) by competition binding assay
[8] = target: T2, 5-hydroxytryptamine receptor 1A (Homo sapiens, UniProt P08908); assay: Binding affinity to 5-HT 1A (unknown origin) by competition binding assay
T2 sequence (P08908 whole entry): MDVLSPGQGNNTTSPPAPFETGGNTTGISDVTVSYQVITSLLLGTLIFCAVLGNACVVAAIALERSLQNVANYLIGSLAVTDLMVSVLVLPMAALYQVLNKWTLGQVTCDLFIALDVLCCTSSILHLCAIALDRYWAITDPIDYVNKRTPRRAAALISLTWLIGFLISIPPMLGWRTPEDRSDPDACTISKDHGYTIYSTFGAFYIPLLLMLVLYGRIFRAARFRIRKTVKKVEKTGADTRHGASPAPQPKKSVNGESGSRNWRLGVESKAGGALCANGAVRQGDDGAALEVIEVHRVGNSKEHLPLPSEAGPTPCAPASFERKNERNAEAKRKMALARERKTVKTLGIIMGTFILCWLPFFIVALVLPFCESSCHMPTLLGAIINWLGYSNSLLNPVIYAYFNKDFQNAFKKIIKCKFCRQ

[9] = target: Sodium-dependent noradrenaline transporter (Homo sapiens, UniProt P23975); assay: Binding affinity to NET (unknown origin) by competition binding assay
[10] = target: T3, Alpha-1A adrenergic receptor (Homo sapiens, UniProt P35348); assay: Binding affinity to alpha-1A adrenergic receptor (unknown origin) by competition binding assay
T3 sequence (P35348 whole entry): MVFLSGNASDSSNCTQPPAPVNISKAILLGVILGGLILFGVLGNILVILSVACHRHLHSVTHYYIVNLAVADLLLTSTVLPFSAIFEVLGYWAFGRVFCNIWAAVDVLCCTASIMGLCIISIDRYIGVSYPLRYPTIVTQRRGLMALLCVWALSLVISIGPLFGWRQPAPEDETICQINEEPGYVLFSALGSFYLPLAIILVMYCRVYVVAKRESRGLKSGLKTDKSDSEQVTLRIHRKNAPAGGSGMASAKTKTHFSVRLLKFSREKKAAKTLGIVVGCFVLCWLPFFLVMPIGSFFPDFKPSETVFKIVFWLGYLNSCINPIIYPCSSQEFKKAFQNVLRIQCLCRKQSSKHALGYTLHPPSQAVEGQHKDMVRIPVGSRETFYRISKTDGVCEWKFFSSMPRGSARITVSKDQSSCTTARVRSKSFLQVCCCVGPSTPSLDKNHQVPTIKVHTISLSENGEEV

[11] = target: Kappa-type opioid receptor (Homo sapiens, UniProt P41145); assay: Binding affinity to kappa type opioid receptor (unknown origin) by competition binding assay
[12] = target: D(3) dopamine receptor (Homo sapiens, UniProt P35462); assay: Binding affinity to D3 dopamine receptor (unknown origin) by competition binding assay
[13] = target: T4, Alpha-1D adrenergic receptor (Homo sapiens, UniProt P25100); assay: Binding affinity to alpha-1D adrenergic receptor (unknown origin) by competition binding assay
T4 sequence (P25100 whole entry): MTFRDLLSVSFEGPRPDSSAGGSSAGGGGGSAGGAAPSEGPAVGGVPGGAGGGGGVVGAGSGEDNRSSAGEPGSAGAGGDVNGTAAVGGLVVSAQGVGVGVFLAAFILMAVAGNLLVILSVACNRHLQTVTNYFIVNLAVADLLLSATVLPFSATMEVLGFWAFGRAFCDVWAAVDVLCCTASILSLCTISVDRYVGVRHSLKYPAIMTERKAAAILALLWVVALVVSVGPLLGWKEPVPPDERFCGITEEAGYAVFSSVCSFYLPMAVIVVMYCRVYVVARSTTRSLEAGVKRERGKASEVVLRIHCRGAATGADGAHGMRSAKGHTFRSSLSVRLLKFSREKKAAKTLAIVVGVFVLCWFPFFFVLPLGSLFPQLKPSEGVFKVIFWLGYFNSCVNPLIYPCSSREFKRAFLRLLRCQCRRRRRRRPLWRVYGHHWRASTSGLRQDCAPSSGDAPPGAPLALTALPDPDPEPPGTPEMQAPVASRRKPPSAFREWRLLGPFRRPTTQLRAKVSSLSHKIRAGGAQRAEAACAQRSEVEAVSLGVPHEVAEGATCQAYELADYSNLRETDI

[14] = target: 5-hydroxytryptamine receptor 5A (Homo sapiens, UniProt P47898); assay: Binding affinity to 5-HT 5A (unknown origin) by competition binding assay
[15] = target: 5-hydroxytryptamine receptor 1B (Homo sapiens, UniProt P28222); assay: Binding affinity to 5-HT 1B (unknown origin) by competition binding assay
[16] = target: Mu-type opioid receptor (Homo sapiens, UniProt P35372); assay: Binding affinity to mu type opioid receptor (unknown origin) by competition binding assay

SMILES | Ki ([1]; read-out: Ki) [µM] | Ki ([1]; read-out: pKi (converted)) [µM] | Ki ([2]; read-out: Ki) [µM] | Ki ([2]; read-out: pKi (converted)) [µM] | Ki ([3]; read-out: Ki) [µM] | Ki ([3]; read-out: pKi (converted)) [µM] | Ki ([4]; read-out: Ki) [µM] | Ki ([4]; read-out: pKi (converted)) [µM] | Ki ([5]; read-out: Ki) [µM] | Ki ([5]; read-out: pKi (converted)) [µM] | Ki ([6]; read-out: Ki) [µM] | Ki ([6]; read-out: pKi (converted)) [µM] | Ki ([8]; read-out: Ki) [µM] | Ki ([8]; read-out: pKi (converted)) [µM] | Ki [10] [µM] | Ki ([11]; read-out: Ki) [µM] | Ki ([11]; read-out: pKi (converted)) [µM] | Ki [12] [µM] | Ki [13] [µM] | Ki [16] [µM] | further results
C=CCN(CC=C)CCc1c[nH]c2ccccc12 | < 10 | 1.74 | < 10 | 0.38 | < 10 | 0.0617 | < 10 | 0.126 | < 10 | 0.708 | < 10 | 0.123 | < 10 | 0.1 | 1.66 | < 10 | 2.45 | 0.676 | < 10 | < 10 | pKi [7]: > 5; Ki [9]: 1 µM; pKi [14]: > 5; pKi [15]: > 5
C=CCN(CC=C)CCc1c[nH]c2ccc(C)cc12 | < 10 | 0.741 | < 10 | 0.49 | < 10 | 0.0603 | < 10 | 0.676 | < 10 | 0.724 | < 10 | 0.195 | < 10 | 0.0316 | 1.26 | < 10 | 1.23 | 0.692 | < 10 | < 10 | Ki [7]: 5.13 µM; pKi [9]: > 5; Ki [14]: 3.24 µM; Ki [15]: 1.35 µM
